Experimental data published in PMC7080599 (European journal of nuclear medicine and molecular imaging, 2019).

Target: T1, lymphokine-activated killer T-cell-originated protein kinase (TOPK) (Homo sapiens, UniProt Q96KB5)
T1 sequence (Q96KB5 1-322): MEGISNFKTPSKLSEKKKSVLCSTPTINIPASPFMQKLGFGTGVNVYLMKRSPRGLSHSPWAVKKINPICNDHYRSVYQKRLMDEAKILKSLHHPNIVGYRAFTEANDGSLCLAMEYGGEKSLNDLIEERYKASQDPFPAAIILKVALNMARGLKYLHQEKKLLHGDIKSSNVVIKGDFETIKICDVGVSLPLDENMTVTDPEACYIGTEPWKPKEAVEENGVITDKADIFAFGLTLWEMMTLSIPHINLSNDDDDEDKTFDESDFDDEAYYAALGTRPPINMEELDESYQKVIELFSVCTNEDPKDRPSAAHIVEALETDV
Assay: in vitro TOPK kinase assay
Type: biochemical

Cc1cc(O)c(-c2ccc([C@@H](C)CNc3ccc([N+](=O)[O-])c4nonc34)cc2)c2c1[nH]c(=O)c1sccc12 [TOPKi-NBD, (R)-8-hydroxy-6-methyl-9-(4-(1-((7-nitrobenzo[c][1,2,5]oxadiazol-4-yl)amino)propan-2-yl)phenyl)thieno[2,3-c]quinolin-4(5H)-one] gave an EC50 of 490 ± 170 nM.
